Like-named read-outs stand apart in the source and are kept apart here.
How the values were obtained:
[1] = test system: P. falciparum; assay: Growth inhibition against P. falciparum; assay type: cell-based; details: Plasmodium falciparum
[2] = test system: P. falciparum had1 mutant strain; assay type: cell-based; details: in words
[3] = test system: DXR; details: versus substrate DOXP and cofactor NADPH; cited from earlier work
[4] = target: T1, P. falciparum DXR (Plasmodium falciparum, UniProt Q8IKG4); details: read-out: Pf DXR IC50; Table 2, footnote a: Gießmann et al. 2008; cited from earlier work
T1 sequence (Q8IKG4 73-488): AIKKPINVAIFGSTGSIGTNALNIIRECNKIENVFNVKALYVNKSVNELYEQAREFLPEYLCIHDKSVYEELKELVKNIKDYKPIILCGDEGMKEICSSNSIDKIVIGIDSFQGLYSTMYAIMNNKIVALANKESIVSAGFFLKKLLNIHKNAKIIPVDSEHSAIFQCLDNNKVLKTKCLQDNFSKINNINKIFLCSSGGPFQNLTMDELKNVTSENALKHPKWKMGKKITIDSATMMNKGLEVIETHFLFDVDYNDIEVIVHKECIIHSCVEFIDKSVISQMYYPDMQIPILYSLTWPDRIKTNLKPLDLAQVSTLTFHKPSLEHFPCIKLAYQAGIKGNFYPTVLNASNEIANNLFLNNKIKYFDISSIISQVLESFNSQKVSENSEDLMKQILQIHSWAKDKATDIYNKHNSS

[5] = test system: P. falciparum; details: Table 6, footnote b: Edwards et al. 2017; read-out: P.f. IC50; cited from earlier work
[6] = test system: Mtb; details: footnote a: Jackson et al. 2014, cited from earlier work

Compound O=CN(O)CCCP(=O)(O)O [Fosmidomycin, reference compound] has an IC50 ([1]; Table 3, diethyl phosphonate analogs, read-out: P.f. IC50) of 0.175 µg/mL, an IC50 ([1]; Table 4, growth inhibition, read-out: Pf IC50) of 854 nM and an IC50 ([1]; read-out: P. falciparum growth IC50) of 854 nM. The “resistance of had1 parasites compared with wild-type” value [2] was “resistant” and the “binding mode to DXR” value [3] was “competitively with substrate DOXP and noncompetitively with cofactor NADPH”.
In the case of CC(=O)N(O)C/C=C/P(=O)(O)O [Compound 2], the IC50 [4] is given as 18 nM, the IC50 [5] is given as 203 nM and the “Mtb MIC99 Gast/Fe” value ([6]; minimal media (GAST-Fe)) is given as 150^a μg/mL. For the same compound, the “Mtb MIC99 7H9” value ([6]; rich media (7H9)) was >200^a μg/mL.

Source: patent US11098072B2, “Alkenyl and beta-substituted phosphonates as antimicrobial agents” (The George Washington University, priority 2017, dated 2021)
